Measured values taken from patent US12612403B2, “Nitrogen-containing heterocyclic derivative inhibitor, and preparation method therefor and use thereof” (SHANGHAI HANSOH BIOMEDICAL CO., LTD., priority 2024, dated 2026).

Assays:
[1] = test system: PCSK9 secreted by HepG2 cells; experiment: Effect on the concentration of PCSK9 secreted by HepG2 cells (ELISA); format: cell-based; settings: Homo sapiens, 48 hours, PCSK9 in culture medium by ELISA
Method: 1. Experimental objective: To detect the inhibitory effect of the compounds on PCSK9.
2. Experimental method: • 1) HepG2 cell strain was cultured in the complete culture medium at 37° C., 5% CO2 to 70-90% confluence. • 2) The cells were digested and resuspended in the experimental culture medium, inoculated at 25,000 cells/well/200 μL in a 96-well cell culture plate, and cultured at 37° C. and 5% CO2 for 20-24 hours. • 3) The culture medium was removed from the cell culture plate, and the cell culture plate was washed once by adding 200 ul of the experimental culture medium to each well. • 4) Preparation of positive control compound and compound to be tested: the positive control compound and the compound to be tested were diluted on the compound plate. • 5) The diluted compound was added to the cell culture plate at 250 μL per well and incubated at 37° C. and 5% CO2 for 48 hours. • 6) The cell culture medium was collected at 200 μL per well and cryopreserved at −80° C. for later use. • 7) A sample of the cell culture medium was taken from the −80° C. cryopreservation condition, dissolved, vortexed, and centrifuged for later use. • 8) Preparation of standard curve: corresponding volumes of Dilution buffer were successively added to respective standard tubes, and in the order of the concentrations of 10, 5, 2.5, 1.25, 0.625, 0.313, 0.16, 0 ng/mL, the standard was diluted in series by taking the corresponding volume from the original tube or the last concentration tube. • 9) Preparation of washing liquid: 10x Wash buffer was diluted into 1x with Milli-Q for later use. • 10) According to the standard curve wells and sample wells set according to a plate map, 100 μL/well of the corresponding standards and culture medium samples were added to the wells, with 2 replicate wells. A self-adhesive seal was applied, the plate was placed on a plate shaker at room temperature, gently shaken, uniformly mixed, and incubated for 1 hour. • 11) The plate was placed on the plate washer, the washing liquid was set to 350 μL per well, and the plate was washed 4 times repeatedly. • 12) 100 μL/well of an HRP-conjugated detection antibody was added, a self-adhesive seal was applied, and the plate was placed on the plate shaker, well mixed uniformly, and incubated for 1 hour. • 13) The plate was placed on the plate washer, the washing liquid was set to 350 μL per well, and the plate was washed 4 times repeatedly. • 14) 100 μL/well of Substrate reagent was added, and the plate was placed in the dark, applied with a self-adhesive seal, placed on the plate shaker, well mixed uniformly, and incubated for 10-20 minutes. • 15) 100 μL of Stop solution (1N H2SO4) was added to each well and mixed uniformly. • 16) The optical density (OD) value in each well was measured in sequence at a wavelength of 450 nm by the microplate reader. Detection was carried out within 30 min after the reaction was stopped.
3. Experimental data processing method: After the OD values were read by the microplate reader, the OD value of the 0-concentration standard in the standard group was subtracted from the OD values of the standards, control group, and samples to obtain the actual OD values for these wells. A standard curve was plotted with Graphpad and the concentration of the sample was calculated. If the dilution was performed during the sample detection, the calculated sample concentration was necessarily multiplied by the corresponding dilution ratio in the final calculation, which was the actual concentration of the sample. Inhibition rate=(actual concentration in control−actual concentration in sample)/actual concentration in control*100. According to the inhibition rates corresponding to the different concentrations, IC50 was derived by Graphpad.

PCSK9 protein = target: T1, PCSK9 protein (Homo sapiens, UniProt Q8NBP7); experiment: Binding ability to PCSK9 protein (HTRF); settings: PCSK9-His, Alexa Fluor 647 probe compound
T1 construct: purchased Sino biology (Sino Biological) 29698-H08H
Method: 1. Experimental objective: To detect the action of compounds to bind PCSK9 protein by an HTRF method.
3. Experimental data processing method: Four-parameter log(inhibitor) vs. response—Variable slope (four parameters) in XLit was used to perform non-linear fitting of the compound concentration and the corresponding inhibition rate, and IC50 was calculated.

[2] = Pharmacokinetic determination in mice (PO 5 mg/kg, IV 1 mg/kg); format: in vivo, C57BL/6J mice; settings: male, C57BL/6J, mouse, plasma, C57 mice, PO administration, 5 mpk; for AUC(0-inf): read-out: Area under the curve AUC0-∞; for half-life: read-out: Half-life t1/2 (converted); for MRT: read-out: Mean residence time MRT; for Cmax: read-out: Plasma concentration Cmax; for Tmax: read-out: Time to peak tmax
Method: 1. Experimental objective: C57BL/6J mice were used as test animals to study the pharmacokinetic behavior of the compounds of the present disclosure in mice (plasma) after oral and intravenous administration.
2.2 Test animals: C57 mice, male, purchased from Shanghai Bk Lab Animal Co., Ltd., with animal production license number (SCXK (Shanghai) 2013-0006 N0.311620400001794).
2.3 Drug preparation: Preparation of oral drug: 10% Solutol HS15
10 g of Solutol HS15 solid was weighed, dissolved in 90 mL of pure water, uniformly mixed, stirred, and ultrasonically treated to form a clear solution. The compound of the present disclosure was weighed and dissolved in this solution, uniformly shaken, and ultrasonically treated for 15 minutes to obtain a colorless clear solution with a concentration of 0.5 mg/mL. Preparation of intravenous drug: 5% DMSO+10% Solutol HS15+85% PBS, the compound of the present disclosure was weighed, 5% DMSO was first added on the basis of the proportion relative to the total volume of administration, and the mixture was vortexed and ultrasonically treated for 2 min until it was completely dissolved; 10% of Solutol HS15 was then added, and the mixture was vortexed and ultrasonically treated for 2 min until it was completely dissolved; and finally, 85% of PBS was added, and the mixture was vortexed, ultrasonically treated for 5 min, and filtered through a 0.22 um filter membrane to obtain a colorless and transparent clear solution with a concentration of 0.2 mg/mL.
2.4 Administration: 3 male C57 mice were fasted overnight and then respectively administered PO at a dose of 5 mg/kg and a volume of 10 mL/kg. 3 male C57 mice were fasted overnight and then respectively administered IV at a dose of 1 mg/kg and a volume of 5 mL/kg.
2.5 Sample collection: Before and after administration of mice, 0.04 mL of blood was collected from the orbit at 0.083 (iv), 0.25, 0.5, 1, 2, 4, 8, and 24 hours, and placed in EDTA-K2 test tubes, which was centrifuged at 6000 rpm at 4° C. for 6 min to separate plasma which was stored at −80° C.; and the […] were fed 4 h after administration.
2.6 Determination results: The final determination results were obtained by using an LCMS/MS method.
3. Experimental results: The main pharmacokinetic parameters were calculated using WinNonlin 6.1.

T1 sequence (Q8NBP7 153-692): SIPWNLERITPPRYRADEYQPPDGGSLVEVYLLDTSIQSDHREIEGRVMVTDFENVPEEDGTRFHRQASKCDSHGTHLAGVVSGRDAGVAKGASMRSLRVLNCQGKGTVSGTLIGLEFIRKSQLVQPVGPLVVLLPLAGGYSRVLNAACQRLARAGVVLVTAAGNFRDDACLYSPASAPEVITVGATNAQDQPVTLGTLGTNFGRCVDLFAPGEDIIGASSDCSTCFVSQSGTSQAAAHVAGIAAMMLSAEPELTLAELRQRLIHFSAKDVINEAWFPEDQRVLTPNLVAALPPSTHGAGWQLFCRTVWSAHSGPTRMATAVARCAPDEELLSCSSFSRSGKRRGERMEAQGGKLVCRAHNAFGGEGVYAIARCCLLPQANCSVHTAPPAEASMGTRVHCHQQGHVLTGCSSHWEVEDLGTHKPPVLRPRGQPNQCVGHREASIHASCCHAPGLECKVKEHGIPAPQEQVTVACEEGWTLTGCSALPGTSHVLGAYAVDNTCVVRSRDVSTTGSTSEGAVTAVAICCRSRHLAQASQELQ

Row | SMILES | IC50 [1] | further results
1 | Cc1ccc2c(n1)CN(c1ccc(N[C@H]3CC[C@H](Nc4nc5cc(C(F)(F)F)ccn5n4)C3)nc1)C2=O [Example 67, 2-methyl-6-(6-(((1S,3S)-3-((7-(trifluoromethyl)-[1,2,4]triazolo[1,5-a]pyridin-2-yl)amino)cyclopentyl)amino)pyridin-3-yl)-6,7-dihydro-5H-pyrrolo[3,4-b]pyridin-5-one] | 17.1 µM | –
2 | O=C1c2ccc(C3CC3)nc2CN1c1ccc(N[C@H]2CC[C@H](Nc3nc4cc(C(F)(F)F)ccn4n3)C2)nc1 [Example 68, 2-cyclopropyl-6-(6-(((1S,3S)-3-((7-(trifluoromethyl)-[1,2,4]triazolo[1,5-a]pyridin-2-yl)amino)cyclopentyl)amino)pyridin-3-yl)-6,7-dihydro-5H-pyrrolo[3,4-b]pyridin-5-one] | 2 µM | IC50 (PCSK9 protein): 0.0098 µM
3 | O=c1[nH]cccc1-c1ccc(N[C@H]2CC[C@H](Nc3nc4cc(C(F)(F)F)ccn4n3)C2)nc1 [Example 73, 6′-(((1S,3S)-3-((7-(trifluoromethyl)-[1,2,4]triazolo[1,5-a]pyridin-2-yl)amino)cyclopentyl)amino)-[3,3′-bipyridine]-2(1H)-one] | 14.3 µM | –
4 | N#Cc1nccc2c1CN(c1ccc(N[C@H]3CC[C@H](Nc4nc5cc(C(F)(F)F)ccn5n4)C3)nc1)C2=O [Example 76, 1-carbonyl-2-(6-(((1S,3S)-3-((7-(trifluoromethyl)-[1,2,4]triazolo[1,5-a]pyridin-2-yl)amino)cyclopentyl)amino)pyridin-3-yl)-2,3-dihydro-1H-pyrrolo[3,4-c]pyridine-4-carbonitrile] | 4.8 µM | IC50 (PCSK9 protein): 0.0139 µM
5 | CC(C)(O)c1ccn(-c2ccc(=O)n(-c3ccc(N[C@H]4CC[C@H](Nc5nc6cc(C(F)(F)F)ccn6n5)C4)nc3)c2)n1 [Example 79, 5-(3-(2-hydroxypropan-2-yl)-1H-pyrazol-1-yl)-6′-(((1S,3S)-3-((7-(trifluoromethyl)-[1,2,4]triazolo[1,5-a]pyridin-2-yl)amino)cyclopentyl)amino)-2H-[1,3′-bipyridine]-2-one] | 15.1 µM | IC50 (PCSK9 protein): 0.0249 µM
6 | CC(C)(O)c1ccn(-c2ccc(N[C@H]3CC[C@H](Nc4nc5cc(C(F)(F)F)ccn5n4)C3)nc2)c(=O)c1 [Example 81, 4-(2-hydroxypropan-2-yl)-6′-(((1S,3S)-3-((7-(trifluoromethyl)-[1,2,4]triazolo[1,5-a]pyridin-2-yl)amino)cyclopentyl)amino)-2H-[1,3′-bipyridine]-2-one] | 26.5 µM | –
7 | Cc1ccc2c(c1)CN(c1ccc(N[C@H]3CC[C@H](Nc4nc5cc(C(F)(F)F)ccn5n4)C3)nc1)C2=O [Example 85, 5-methyl-2-(6-(((1S,3S)-3-((7-(trifluoromethyl)-[1,2,4]triazolo[1,5-a]pyridin-2-yl)amino)cyclopentyl)amino)pyridin-3-yl)isoindolin-1-one] | 2.6 µM | –
8 | O=C1c2ccc(F)cc2CN1c1ccc(N[C@H]2CC[C@H](Nc3nc4cc(C(F)(F)F)ccn4n3)C2)nc1 [Example 86, 5-fluoro-2-(6-(((1S,3S)-3-((7-(trifluoromethyl)-[1,2,4]triazolo[1,5-a]pyridin-2-yl)amino)cyclopentyl)amino)pyridin-3-yl)isoindolin-1-one] | 0.9 µM | –
9 | Cn1c2ccccc2c(=O)n1-c1ccc(N[C@H]2CC[C@H](Nc3nc4cc(C(F)(F)F)ccn4n3)C2)nc1 [Example 87] | 0.6 µM | –
10 | Cc1cc2c(c(C#N)n1)CN(c1ccc(N[C@H]3CC[C@H](Nc4nc5cc(C(F)(F)F)ccn5n4)C3)nc1)C2=O [Example 90, 6-methyl-1-carbonyl-2-(6-(((1S,3S)-3-((7-(trifluoromethyl)-[1,2,4]triazolo[1,5-a]pyridin-2-yl)amino)cyclopentyl)amino)pyridin-3-yl)-2,3-dihydro-1H-pyrrolo[3,4-c]pyridine-4-carbonitrile] | 2.7 µM | –
11 | O=C1c2ncc(Cl)cc2CN1c1ccc(N[C@H]2CC[C@H](Nc3nc4cc(C(F)(F)F)ccn4n3)C2)nc1 [Example 95] | 0.7 µM | –
12 | N#Cc1cnc2c(c1)CN(c1ccc(N[C@H]3CC[C@H](Nc4nc5cc(C(F)(F)F)ccn5n4)C3)nc1)C2=O [Example 96] | 12.7 µM | –
13 | Cc1cc2c(cn1)CN(c1ccc(N[C@H]3CC[C@H](Nc4nc5cc(OC(F)F)ccn5n4)C3)nc1)C2=O [Example 99] | 6.6 µM | AUC(0-inf) [2]: 27900 ng·h/mL; half-life [2]: 2.7 h; MRT [2]: 3.4 h; Cmax [2]: 7240 ng/mL; Tmax [2]: 0.25 h
14 | Cc1nccc2c1CN(c1ccc(N[C@H]3CC[C@H](Nc4nc5cc(OC(F)F)ccn5n4)C3)nc1)C2=O [Example 100] | 5 µM | –
15 | O=c1nc(O)ccn1-c1ccc(N[C@H]2CC[C@H](Nc3nc4cc(Cl)ccn4n3)C2)nc1 [Example 103] | 1.4 µM | –
16 | Cc1cc(N[C@H]2CC[C@H](Nc3nc4cc(C(F)(F)F)ccn4n3)C2)ncc1N1Cc2cccnc2C1=O [Example 113] | 6.9 µM | –
17 | O=C1c2cc(Cl)cnc2CN1c1ccc(N[C@H]2CC[C@H](Nc3nc4cc(OC(F)F)ccn4n3)C2)nc1 [Example 130] | 1.5 µM | AUC(0-inf) [2]: 57900 ng·h/mL; half-life [2]: 3.6 h; MRT [2]: 6.1 h; Cmax [2]: 5090 ng/mL; Tmax [2]: 1 h
18 | O=C1c2cccnc2CN1c1cnc(N[C@H]2CC[C@H](Nc3nc4cc(C(F)(F)F)ccn4n3)C2)c(F)c1 [Example 162] | 5.3 µM | –
19 | O=c1ccccn1-c1ccc(N[C@H]2CC[C@H](Nc3nc4cc(C(F)(F)F)ccn4n3)C2)nc1 [Example 426] | 14 µM | –
20 | O=c1ccccn1-c1ccc(N[C@H]2CC[C@H](Nc3nc4cc(C5CC5)ccn4n3)C2)nc1 [Example 427] | 22.3 µM | –
